# Source: patent US11767310B2, “Nicotinamide RIPK1 inhibitors” (AbbVie Inc., priority 2021, dated 2023)
# Where two headings read alike, the source gives them in different places.
# Assays:
# Assay in all cases: Kinase binding screen
# Conditions in all cases: read-out: Percent Control at 100 nM Compound Concentration
# ERK8 = ERK8 (Homo sapiens (Human), UniProt Q8TD08)
# RET(M918T) = RET(M918T) (Homo sapiens (Human), UniProt P07949, M918T)
# SRPK1 = SRPK1 (Homo sapiens (Human), UniProt Q96SB4)
# SGK2 = SGK2 (Homo sapiens (Human), UniProt Q9HBY8)
# EIF2AK1 = EIF2AK1 (Homo sapiens (Human), UniProt Q9BQI3)
# STK16 = STK16 (Homo sapiens (Human), UniProt O75716)
# ITK = ITK (Homo sapiens (Human), UniProt Q08881)
# [1] = target: EGFR(L747-E749del, A750P) (Homo sapiens (Human), UniProt P00533, A750P/DEL747-749)
# PRKCI = PRKCI (Homo sapiens (Human), UniProt P41743)
# EPHB6 = EPHB6 (Homo sapiens (Human), UniProt O15197)
# EPHB6, sequence (O15197 32-1021): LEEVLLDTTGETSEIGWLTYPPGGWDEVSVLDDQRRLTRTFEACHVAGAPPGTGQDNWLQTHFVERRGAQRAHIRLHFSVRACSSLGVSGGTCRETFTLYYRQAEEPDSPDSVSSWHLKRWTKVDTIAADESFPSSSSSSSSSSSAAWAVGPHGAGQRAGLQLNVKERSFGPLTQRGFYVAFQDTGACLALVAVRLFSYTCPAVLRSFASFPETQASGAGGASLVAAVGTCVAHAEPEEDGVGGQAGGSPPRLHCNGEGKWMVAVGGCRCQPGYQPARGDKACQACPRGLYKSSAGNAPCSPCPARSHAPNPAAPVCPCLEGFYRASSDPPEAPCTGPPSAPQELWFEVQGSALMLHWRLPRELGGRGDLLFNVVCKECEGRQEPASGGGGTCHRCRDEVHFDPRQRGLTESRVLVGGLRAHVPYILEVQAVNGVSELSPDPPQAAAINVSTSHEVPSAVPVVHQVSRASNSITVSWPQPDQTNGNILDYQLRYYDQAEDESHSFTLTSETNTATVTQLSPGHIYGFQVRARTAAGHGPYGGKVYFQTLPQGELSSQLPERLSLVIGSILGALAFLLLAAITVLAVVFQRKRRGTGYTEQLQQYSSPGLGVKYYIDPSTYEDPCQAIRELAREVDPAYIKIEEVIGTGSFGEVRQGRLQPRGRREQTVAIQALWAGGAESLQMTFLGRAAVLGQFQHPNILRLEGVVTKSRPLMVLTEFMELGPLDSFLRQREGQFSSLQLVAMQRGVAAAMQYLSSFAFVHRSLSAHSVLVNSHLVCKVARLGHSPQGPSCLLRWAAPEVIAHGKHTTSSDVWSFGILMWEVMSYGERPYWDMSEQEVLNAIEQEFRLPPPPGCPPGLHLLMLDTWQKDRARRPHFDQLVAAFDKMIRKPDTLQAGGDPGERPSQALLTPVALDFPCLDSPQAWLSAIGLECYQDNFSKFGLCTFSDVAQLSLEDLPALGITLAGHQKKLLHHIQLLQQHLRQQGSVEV
# TGFBR2 = TGFBR2 (Homo sapiens (Human), UniProt P37173)
# FLT3-autoinhibited = FLT3-autoinhibited (Homo sapiens (Human), UniProt P36888)
# NIM1 = NIM1 (Homo sapiens (Human), UniProt Q8IY84)
# NIM1, sequence (Q8IY84 whole entry): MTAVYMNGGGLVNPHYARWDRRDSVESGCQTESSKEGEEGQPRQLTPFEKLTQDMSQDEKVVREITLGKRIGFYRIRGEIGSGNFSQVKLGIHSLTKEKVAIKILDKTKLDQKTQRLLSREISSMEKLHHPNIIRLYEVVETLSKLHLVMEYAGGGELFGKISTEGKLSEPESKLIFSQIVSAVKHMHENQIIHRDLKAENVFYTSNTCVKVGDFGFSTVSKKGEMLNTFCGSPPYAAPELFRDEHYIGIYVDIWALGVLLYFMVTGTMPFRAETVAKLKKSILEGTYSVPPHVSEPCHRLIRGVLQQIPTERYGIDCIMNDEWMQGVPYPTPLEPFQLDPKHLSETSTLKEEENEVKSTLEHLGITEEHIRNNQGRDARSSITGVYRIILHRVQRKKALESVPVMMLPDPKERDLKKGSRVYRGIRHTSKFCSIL
# AURKA = AURKA (Homo sapiens (Human), UniProt O14965)
# PFTAIRE2 = PFTAIRE2 (Homo sapiens (Human), UniProt Q96Q40)
# PFTAIRE2, sequence (Q96Q40 whole entry): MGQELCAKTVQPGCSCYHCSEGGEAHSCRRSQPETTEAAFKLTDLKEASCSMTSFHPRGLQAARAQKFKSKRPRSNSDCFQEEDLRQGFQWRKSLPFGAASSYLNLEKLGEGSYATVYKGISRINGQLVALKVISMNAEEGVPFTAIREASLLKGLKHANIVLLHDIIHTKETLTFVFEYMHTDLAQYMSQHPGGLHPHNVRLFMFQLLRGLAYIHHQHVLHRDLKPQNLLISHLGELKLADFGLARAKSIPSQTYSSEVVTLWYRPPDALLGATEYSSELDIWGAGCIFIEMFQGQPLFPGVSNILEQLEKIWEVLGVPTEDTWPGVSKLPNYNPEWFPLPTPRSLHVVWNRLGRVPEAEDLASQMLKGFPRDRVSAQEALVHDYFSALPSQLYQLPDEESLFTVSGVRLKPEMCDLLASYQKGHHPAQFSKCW
# PLK3 = PLK3 (Homo sapiens (Human), UniProt Q9H4B4)
# EPHA1 = EPHA1 (Homo sapiens (Human), UniProt P21709)
# ICK = ICK (Homo sapiens (Human), UniProt Q9UPZ9)
# CDK4-cyclinD1 = CDK4-cyclinD1 (Homo sapiens (Human), UniProt P11802)
# PRKR = PRKR (Homo sapiens (Human), UniProt P19525)
# CAMK1D = CAMK1D (Homo sapiens (Human), UniProt Q8IU85)
# [2] = target: ABL1(H396P)-nonphosphorylated (Homo sapiens (Human), UniProt P00519, H396P)
# TAOK1 = TAOK1 (Homo sapiens (Human), UniProt Q7L7X3)
# [3] = target: RSK2(Kin.Dom.1-N-terminal) (Homo sapiens (Human), UniProt P51812)
# RSK2(Kin.Dom.1-N-terminal), sequence (P51812 68-327): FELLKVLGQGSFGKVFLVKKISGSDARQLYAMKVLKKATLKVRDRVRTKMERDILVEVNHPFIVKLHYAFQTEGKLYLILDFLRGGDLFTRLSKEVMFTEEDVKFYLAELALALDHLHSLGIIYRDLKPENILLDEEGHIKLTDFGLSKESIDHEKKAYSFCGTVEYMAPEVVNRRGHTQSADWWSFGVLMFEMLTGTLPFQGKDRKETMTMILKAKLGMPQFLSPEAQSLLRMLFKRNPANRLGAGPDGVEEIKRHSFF
# DMPK = DMPK (Homo sapiens (Human), UniProt Q09013)
# DMPK, sequence (Q09013 whole entry): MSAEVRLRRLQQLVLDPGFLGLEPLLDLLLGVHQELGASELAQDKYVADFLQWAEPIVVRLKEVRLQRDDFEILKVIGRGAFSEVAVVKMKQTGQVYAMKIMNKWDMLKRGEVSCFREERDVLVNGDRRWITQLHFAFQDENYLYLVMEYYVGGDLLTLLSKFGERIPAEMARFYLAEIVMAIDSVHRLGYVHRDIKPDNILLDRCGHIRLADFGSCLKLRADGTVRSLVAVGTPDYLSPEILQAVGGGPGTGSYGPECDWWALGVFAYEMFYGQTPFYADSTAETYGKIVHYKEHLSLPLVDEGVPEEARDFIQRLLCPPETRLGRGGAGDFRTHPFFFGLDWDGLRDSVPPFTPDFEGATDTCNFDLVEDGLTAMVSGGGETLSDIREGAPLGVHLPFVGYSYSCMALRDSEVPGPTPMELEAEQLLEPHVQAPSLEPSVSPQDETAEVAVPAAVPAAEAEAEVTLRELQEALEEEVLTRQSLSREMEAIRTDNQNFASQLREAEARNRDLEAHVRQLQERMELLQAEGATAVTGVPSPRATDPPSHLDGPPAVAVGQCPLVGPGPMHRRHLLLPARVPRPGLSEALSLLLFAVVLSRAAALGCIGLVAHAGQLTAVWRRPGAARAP
# PAK1 = PAK1 (Homo sapiens (Human), UniProt Q13153)
# IKK-beta = IKK-beta (Homo sapiens (Human), UniProt O14920)
# p38-alpha = p38-alpha (Homo sapiens (Human), UniProt Q16539)
# RET(M918T), sequence (P07949 29-1114 M918T): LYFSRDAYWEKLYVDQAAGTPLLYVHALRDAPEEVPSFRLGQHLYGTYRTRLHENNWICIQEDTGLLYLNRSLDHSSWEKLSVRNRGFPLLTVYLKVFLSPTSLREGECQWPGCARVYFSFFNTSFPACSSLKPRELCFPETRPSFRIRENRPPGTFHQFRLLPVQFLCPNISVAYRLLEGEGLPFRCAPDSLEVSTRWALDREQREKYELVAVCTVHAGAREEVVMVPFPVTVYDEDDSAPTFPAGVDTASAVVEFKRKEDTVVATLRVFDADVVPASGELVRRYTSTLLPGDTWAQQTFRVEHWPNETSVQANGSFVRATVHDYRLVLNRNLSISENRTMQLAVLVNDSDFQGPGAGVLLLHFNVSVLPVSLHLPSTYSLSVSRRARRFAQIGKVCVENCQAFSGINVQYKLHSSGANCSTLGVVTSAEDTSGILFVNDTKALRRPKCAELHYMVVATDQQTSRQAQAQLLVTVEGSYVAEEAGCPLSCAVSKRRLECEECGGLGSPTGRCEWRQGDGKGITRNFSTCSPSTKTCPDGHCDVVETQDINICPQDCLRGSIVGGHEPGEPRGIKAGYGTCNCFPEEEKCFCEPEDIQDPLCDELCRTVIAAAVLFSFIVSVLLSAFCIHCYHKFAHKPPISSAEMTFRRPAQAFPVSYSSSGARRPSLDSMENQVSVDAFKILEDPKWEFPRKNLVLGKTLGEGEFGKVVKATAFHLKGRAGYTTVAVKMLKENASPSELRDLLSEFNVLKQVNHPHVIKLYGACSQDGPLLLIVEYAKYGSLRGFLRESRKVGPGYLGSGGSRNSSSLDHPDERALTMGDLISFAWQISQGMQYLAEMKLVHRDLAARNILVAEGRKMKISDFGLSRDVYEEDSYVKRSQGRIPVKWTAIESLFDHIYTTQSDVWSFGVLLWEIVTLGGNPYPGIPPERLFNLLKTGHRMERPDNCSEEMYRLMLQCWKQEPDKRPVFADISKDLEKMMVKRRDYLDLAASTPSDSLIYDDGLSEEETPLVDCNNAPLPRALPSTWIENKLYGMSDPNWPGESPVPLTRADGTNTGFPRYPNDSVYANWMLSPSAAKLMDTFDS
# SRPK1, sequence (Q96SB4 whole entry): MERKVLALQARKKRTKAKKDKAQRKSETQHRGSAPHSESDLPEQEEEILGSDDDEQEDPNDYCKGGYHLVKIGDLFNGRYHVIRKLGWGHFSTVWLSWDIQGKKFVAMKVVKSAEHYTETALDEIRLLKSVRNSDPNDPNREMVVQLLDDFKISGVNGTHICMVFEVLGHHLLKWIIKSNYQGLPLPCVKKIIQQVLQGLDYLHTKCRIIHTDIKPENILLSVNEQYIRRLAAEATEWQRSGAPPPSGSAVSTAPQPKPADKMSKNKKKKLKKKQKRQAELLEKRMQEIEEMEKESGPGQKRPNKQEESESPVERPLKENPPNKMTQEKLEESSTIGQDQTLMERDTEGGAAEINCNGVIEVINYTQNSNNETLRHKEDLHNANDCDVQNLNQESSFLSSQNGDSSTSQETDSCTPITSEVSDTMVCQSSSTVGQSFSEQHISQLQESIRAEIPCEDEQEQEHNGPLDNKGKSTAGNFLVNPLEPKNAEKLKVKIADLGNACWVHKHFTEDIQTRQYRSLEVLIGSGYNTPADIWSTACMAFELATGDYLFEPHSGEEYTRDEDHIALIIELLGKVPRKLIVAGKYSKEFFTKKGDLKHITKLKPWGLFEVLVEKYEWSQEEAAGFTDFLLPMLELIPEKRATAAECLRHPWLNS
# ERK8, sequence (Q8TD08 whole entry): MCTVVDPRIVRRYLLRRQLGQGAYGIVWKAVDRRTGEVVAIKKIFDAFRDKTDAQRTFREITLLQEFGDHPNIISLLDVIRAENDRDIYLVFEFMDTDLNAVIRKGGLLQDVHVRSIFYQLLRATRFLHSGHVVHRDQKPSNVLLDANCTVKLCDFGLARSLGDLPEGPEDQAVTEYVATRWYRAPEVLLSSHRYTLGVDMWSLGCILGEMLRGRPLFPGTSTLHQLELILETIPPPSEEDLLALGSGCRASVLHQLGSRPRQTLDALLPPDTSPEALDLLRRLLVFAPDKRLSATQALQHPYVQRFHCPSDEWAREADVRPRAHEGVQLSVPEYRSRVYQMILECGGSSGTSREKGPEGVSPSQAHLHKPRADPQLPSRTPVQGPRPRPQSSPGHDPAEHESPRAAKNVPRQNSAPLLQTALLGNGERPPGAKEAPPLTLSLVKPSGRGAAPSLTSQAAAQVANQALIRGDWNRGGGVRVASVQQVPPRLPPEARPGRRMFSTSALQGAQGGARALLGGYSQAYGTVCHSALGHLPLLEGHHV
compound,measurement,setting,value
"CN(C[C@@H](O)Cc1ccccc1)C(=O)c1cncc(C#Cc2cnn(C(F)F)c2)c1 [Example 2, (S)-5-((1-(difluoromethyl)-1H-pyrazol-4-yl)ethynyl)-N-(2-hydroxy-3-phenylpropyl)-N-methylnicotinamide]",remaining activity at 0.1 µM,ERK8; ERK8,100%
same,remaining activity at 0.1 µM,RET(M918T); RET(M918T),100%
same,remaining activity at 0.1 µM,SRPK1; SRPK1,100%
same,remaining activity at 0.1 µM,SGK2; SGK2,100%
same,remaining activity at 0.1 µM,EIF2AK1; EIF2AK1,100%
same,remaining activity at 0.1 µM,STK16; STK16,98%
same,remaining activity at 0.1 µM,ITK; ITK,99%
same,remaining activity at 0.1 µM,"[1]; EGFR(L747-E749del, A750P)",100%
same,remaining activity at 0.1 µM,PRKCI; PRKCI,96%
same,remaining activity at 0.1 µM,EPHB6; EPHB6,100%
same,remaining activity at 0.1 µM,TGFBR2; TGFBR2,100%
same,remaining activity at 0.1 µM,FLT3-autoinhibited; FLT3-autoinhibited,95%
same,remaining activity at 0.1 µM,NIM1; NIM1,89%
same,remaining activity at 0.1 µM,AURKA; AURKA,100%
same,remaining activity at 0.1 µM,PFTAIRE2; PFTAIRE2,100%
same,remaining activity at 0.1 µM,PLK3; PLK3,97%
same,remaining activity at 0.1 µM,EPHA1; EPHA1,100%
same,remaining activity at 0.1 µM,ICK; ICK,100%
same,remaining activity at 0.1 µM,CDK4-cyclinD1; CDK4-cyclinD1,100%
same,remaining activity at 0.1 µM,PRKR; PRKR,100%
same,remaining activity at 0.1 µM,CAMK1D; CAMK1D,100%
same,remaining activity at 0.1 µM,[2]; ABL1(H396P)-nonphosphorylated,88%
same,remaining activity at 0.1 µM,TAOK1; TAOK1,100%
same,remaining activity at 0.1 µM,[3]; RSK2(Kin.Dom.1-N-terminal),100%
same,remaining activity at 0.1 µM,DMPK; DMPK,100%
same,remaining activity at 0.1 µM,PAK1; PAK1,100%
same,remaining activity at 0.1 µM,IKK-beta; IKK-beta,96%
same,remaining activity at 0.1 µM,p38-alpha; p38-alpha,100%
"CN(C[C@H](Cc1ccccc1)OP(=O)(O)O)C(=O)c1cncc(C#Cc2cnn(C(F)F)c2)c1 [Example 19, (S)-1-(5-((1-(difluoromethyl)-1H-pyrazol-4-yl)ethynyl)-N-methylnicotinamido)-3-phenylpropan-2-yl dihydrogen phosphate]",remaining activity at 0.1 µM,ERK8,100%
same,remaining activity at 0.1 µM,RET(M918T),100%
same,remaining activity at 0.1 µM,SRPK1,100%
same,remaining activity at 0.1 µM,SGK2,93%
same,remaining activity at 0.1 µM,EIF2AK1,96%
same,remaining activity at 0.1 µM,STK16,92%
same,remaining activity at 0.1 µM,ITK,100%
same,remaining activity at 0.1 µM,[1],84%
same,remaining activity at 0.1 µM,PRKCI,92%
same,remaining activity at 0.1 µM,EPHB6,100%
same,remaining activity at 0.1 µM,TGFBR2,100%
same,remaining activity at 0.1 µM,FLT3-autoinhibited,96%
same,remaining activity at 0.1 µM,NIM1,89%
same,remaining activity at 0.1 µM,AURKA,100%
same,remaining activity at 0.1 µM,PFTAIRE2,100%
same,remaining activity at 0.1 µM,PLK3,92%
same,remaining activity at 0.1 µM,EPHA1,100%
same,remaining activity at 0.1 µM,ICK,93%
same,remaining activity at 0.1 µM,CDK4-cyclinD1,97%
same,remaining activity at 0.1 µM,PRKR,97%
same,remaining activity at 0.1 µM,CAMK1D,74%
same,remaining activity at 0.1 µM,[2],96%
same,remaining activity at 0.1 µM,TAOK1,100%
same,remaining activity at 0.1 µM,[3],94%
same,remaining activity at 0.1 µM,DMPK,100%
same,remaining activity at 0.1 µM,PAK1,100%
same,remaining activity at 0.1 µM,IKK-beta,96%
same,remaining activity at 0.1 µM,p38-alpha,100%
